The source of these data is patent US9469616B2, “Cyclic compounds and methods of making and using the same” (Cellceutix Corporation, priority 2011, dated 2016).

What all share (type): cell-based
Assay [1] concerns HepG2. The experiment in a line: Cytotoxicity colorimetric assay. Particulars: Homo sapiens, HepG2, 1 h, one hour incubation in serum-free media. The procedure: (§1) Cytotoxicity of the compounds are evaluated in a colorimetric assay using a transformed human liver cell line (HepG2, HB-8065) and an embryonic mouse cell line (NIH/3T3 cells, CRL-1658). This assay measures the bioreduction of a novel tetrazolium compound to a soluble formazan product by viable cells. HepG2 cells are seeded in 96 well plates at 2×10^4 cells/well in MEM medium with 10% fetal bovine serum (FBS) 24 hours prior to use. NIH/3T3 cells are seeded in 96 well plates at 2×10^4 cells/well in DMEM medium with 10% bovine calf serum (BCS) 24 hours prior to use. Cell monolayers are rinsed in serum-free media and incubated for one hour with a Compound in serum-free media. After incubation, the media is replaced with serum supplemented media and live cells are measured using the Cell Titer 96 Aqueous […] Assay kit (Promega, Madison, Wis.). EC50 values are determined using a four parameter logistic equation: Y=Bottom+(Top−Bottom)/(1+10^((Log EC50−X)*HillSlope)). Actual results from a representative cytotoxicity assay are shown below in Table 3. Data is expressed as EC50 in μg/ml. Cytotoxicity is evaluated in a colorimetric assay using a transformed human liver cell line (HepG2, HB-8065) and an embryonic mouse cell line (NIH/3T3 cells, CRL-1658). This assay measures the bioreduction of a novel tetrazolium compound to a soluble formazan product by viable cells. HepG2 cells are seeded in 96 well plates at 3×10^4 cells/well in MEM medium with 10% fetal bovine serum (FBS) 24 hours prior to use. NIH/3T3 cells are seeded in 96 well plates at 2×10^4 cells/well in DMEM medium with 10% bovine calf serum (BCS) 24 hours prior to use. Cell monolayers are rinsed in serum-free media and incubated for one hour with test agent in serum-free media. After incubation, the media is replaced with serum supplemented media and live cells are measured using the Cell Titer 96 Aqueous […] Assay kit (Promega, Madison, Wis.). EC50 values are determined using a four parameter logistic equation: Y=Bottom+(Top−Bottom)/(1+10^((Log EC50−X)*HillSlope)).

Assay [2] deals with K. pneumoniae (13883). The assay can be described thus: MIC assay (Table 1). Particulars: Klebsiella pneumoniae, isolate 13883, read-out: MIC50 K. Pnuemnoiae. The procedure:
(§2) The compounds are screened for antimicrobial activity against a number of clinically relevant pathogens. Minimum Inhibitory Concentrations (MIC) of each of the compounds are determined using standard procedures for clinical ocular isolates of Ciprofloxacin Susceptible (CS) S. aureus (CSSA), Ciprofloxacin Resistant (CR) S. aureus (CRSA), CS S. epidermidis (CSSE), CR S. epidermidis (CRSE), St. pneumoniae (SP), St. viridans group (SV), Moraxella Species (MS) (including Moraxella catarrhalis), H. influenzae (HI), P. aeruginosa (PA), Serratia marcescens (SM), S. aureus fluoroquinolone-susceptible, S. aureus fluoroquinolone-resistant, S. epidermidis (Coagulase-negative Staphylococcus) fluoroquinolone-susceptible, S. epidermidis (Coagulase-negative Staphylococcus) fluoroquinolone-resistant, and Serratia marcescens.
(§3) On the day of testing, a 640 μg/m (1280 μg/m for Serratia marcescens and Pseudomonas aeruginosa) concentration is prepared from a 1% stock solution in 0.01% acetic acid, 0.2% BSA in polypropylene tubes.
(§4) Ten μl of diluted 10× test agents is added to each well of one row of the 96 well polypropylene plates from column 2 to column 12 (column 1 is a control for bacteria alone, with no peptide). […] The same peptide is in each of the 8 rows. One plate contains dilutions of one test agent and 8 bacterial isolates.
(§5) Ninety μl of the bacterial suspensions is dispensed in each well from column 1 to column 12. Each bacterial isolate is placed in one row of a 96 well polypropylene plate containing the test agents. The plates are placed on shaker at 15 minutes at room temperature, and then incubated at 37° C. overnight. MICs are determined visually as the lowest concentration of drug that inhibits visible bacterial growth.
(§6) Data is expressed as MIC50 in μg/ml. The bacterial isolates were as follows: E. coli (25922); S. aureus (27660); E. faecalis (29212); P. aeruginosa (10145); and K. pneumoniae (13883).

Assay [3] has as its system E. faecalis (29212). The assay can be described thus: MIC assay (Table 1). Particulars: Enterococcus faecalis, isolate 29212. The procedure: as §2, §3, §4, §5, §6
Assay [4] has as its system P. aeruginosa (10145). The experiment in a line: MIC assay (Table 1). As to conditions: Pseudomonas aeruginosa, isolate 10145.
The test system of assay [5] is NIH/3T3 cells. The experiment in a line: Cytotoxicity colorimetric assay. Particulars: Mus musculus, NIH3T3, 1 h, one hour incubation in serum-free media. The method, then: as §1, with “Actual results from a representative cytotoxicity assay are shown below in Table 3.” left out
The subject of assay [6] is E. coli (25922). The experiment in a line: MIC assay (Table 1). Particulars: Escherichia coli, isolate 25922.
The test system of assay [7] is S. aureus (27660). The assay can be described thus: MIC assay (Table 1). Particulars: Staphylococcus aureus, isolate 27660.

Converted amounts (≈) assume the structure as drawn.

The term EC50 denotes the midpoint of the concentration-response curve. Read a high EC50 as lower potency in that assay. Broadly, the MIC50 is the lowest concentration that inhibits either 50% of growth or 50% of the strains tested, depending on the study. As to `N=C(N)NCCCOc1cc(-c2cn(-c3cc(OCCCNC(=N)N)cc(OCCCNC(=N)N)c3)nn2)cc(-c2cn(-c3cc(OCCCNC(=N)N)cc(OCCCNC(=N)N)c3)nn2)c1` [Compound 100], the EC50 in assay [1] stood at 48.6 µg/mL (≈ 51.7 µM); in assay [5], 23.2 µg/mL (≈ 24.7 µM). Also, the MIC50 in assay [2] was above 50 µg/mL; in assay [3], 25 µg/mL (≈ 26.6 µM); in assay [4], above 50 µg/mL; in assay [6], 50 µg/mL (≈ 53.2 µM); in assay [7], 50 µg/mL (≈ 53.2 µM).

In the case of `NCCCOc1ccc(-n2cc(-c3cccc(-c4cn(-c5ccc(OCCCN)c(OCCCN)c5)nn4)c3)nn2)cc1OCCCN` [Compound 101], the MIC50 in assay [2] is above 50 µg/mL; in assay [3] it was 12.5 µg/mL (≈ 19 µM); in assay [4], 50 µg/mL (≈ 76.1 µM); in assay [6] it was above 50 µg/mL; in assay [7], 12.5 µg/mL (≈ 19 µM). The compound further returned an EC50 in assay [5] of 52.4 µg/mL (≈ 79.8 µM).

As for `N=C(N)NCCCOc1cc(OCCCNC(=N)N)cc(-c2ccc3ccc(-c4cc(OCCCNC(=N)N)cc(OCCCNC(=N)N)c4)cc3c2)c1` [Compound 117], the MIC50 in assay [2] was 1.56 µg/mL (≈ 2.11 µM); in assay [3], 0.78 µg/mL (≈ 1.05 µM); in assay [4] it was 12.5 µg/mL (≈ 16.9 µM); in assay [6], 1.56 µg/mL (≈ 2.11 µM); in assay [7], 1.56 µg/mL (≈ 2.11 µM). In addition, in assay [5], the midpoint of the response, the EC50, lay at 31.6 µg/mL (≈ 42.7 µM).

For the compound `NCCCOc1cc(-c2cn(-c3cc(OCCCN)cc(OCCCN)c3)nn2)cc(-c2cn(-c3cc(OCCCN)cc(OCCCN)c3)nn2)c1` [Compound 105], the MIC50 in assay [2] is above 50 µg/mL; in assay [3] it was above 50 µg/mL; in assay [4], 50 µg/mL (≈ 68.5 µM); in assay [6], 50 µg/mL (≈ 68.5 µM); in assay [7], 25 µg/mL (≈ 34.3 µM). In assay [5], this compound came in with a 50% effective concentration (EC50) of 83.4 µg/mL (≈ 114 µM).

For `NCCCOc1cc(OCCCN)cc(-c2cc(-c3cc(OCCCN)cc(OCCCN)c3)cc(-c3cc4ccccc4[nH]3)c2)c1` [Compound 108], the MIC50 was above 50 µg/mL in assay [2]; 12.5 µg/mL (≈ 19.6 µM) in assay [3]; 25 µg/mL (≈ 39.2 µM) in assay [4]; 6.25 µg/mL (≈ 9.8 µM) in assay [6]; 1.56 µg/mL (≈ 2.45 µM) in assay [7].

On to `NCCCOc1cc(C#Cc2ccc3ccc(C#Cc4cc(OCCCN)cc(OCCCN)c4)cc3c2)cc(OCCCN)c1` [Compound 120], for which the figures for the concentration for a half-maximal effect (EC50) in assay [1] and in assay [5] were 36.4 µg/mL (≈ 58.6 µM) and 15.2 µg/mL (≈ 24.5 µM), respectively. Moreover, the MIC50 in assay [2] came out at 6.25 µg/mL (≈ 10.1 µM); in assay [3], 1.56 µg/mL (≈ 2.51 µM); in assay [4], 6.25 µg/mL (≈ 10.1 µM); in assay [6], 3.13 µg/mL (≈ 5.04 µM); in assay [7], 3.13 µg/mL (≈ 5.04 µM).

In the case of `N=C(N)NCCCOc1cc(-c2cn(-c3cccc(OCCCNC(=N)N)c3)nn2)cc(-c2cn(-c3cccc(OCCCNC(=N)N)c3)nn2)c1` [Compound 106], the MIC50 in assay [2] was above 50 µg/mL; in assay [3], 50 µg/mL (≈ 70.4 µM); in assay [4] it was 50 µg/mL (≈ 70.4 µM); in assay [6], 25 µg/mL (≈ 35.2 µM); in assay [7] it was 1.56 µg/mL (≈ 2.2 µM). For the same compound, in assay [5], the EC50 stood at 191 µg/mL (≈ 269 µM).

In the case of `NCCCOc1ccc(-n2cc(-c3ccc4ccc(-c5cn(-c6ccc(OCCCN)c(OCCCN)c6)nn5)cc4c3)nn2)cc1OCCCN` [Compound 103], the 50% effective concentration (EC50) in assay [1] was 55.5 µg/mL (≈ 78.5 µM); in assay [5], 32.7 µg/mL (≈ 46.3 µM). Besides, the MIC50 in assay [2] was above 50 µg/mL; in assay [3], 25 µg/mL (≈ 35.4 µM); in assay [4], 50 µg/mL (≈ 70.7 µM); in assay [6] it was above 50 µg/mL; in assay [7] it was 25 µg/mL (≈ 35.4 µM).

Consider `N=C(N)NCCCOc1ccc(-n2cc(-c3ccc4ccc(-c5cn(-c6ccc(OCCCNC(=N)N)c(OCCCNC(=N)N)c6)nn5)cc4c3)nn2)cc1OCCCNC(=N)N` [Compound 104], for which the EC50 was found to be 54 µg/mL (≈ 61.7 µM) in assay [1] and 34.7 µg/mL (≈ 39.7 µM) in assay [5]. The MIC50 in assay [2] is above 50 µg/mL; in assay [3], 25 µg/mL (≈ 28.6 µM); in assay [4], 50 µg/mL (≈ 57.1 µM); in assay [6], above 50 µg/mL; in assay [7] it was 25 µg/mL (≈ 28.6 µM).

In the case of `N=C(N)NCCCOc1cc(OCCCNC(=N)N)cc(-c2cc(-c3ccccc3)cc(-c3cc(OCCCNC(=N)N)cc(OCCCNC(=N)N)c3)c2)c1` [Compound 114], the EC50 is 40.4 µg/mL (≈ 52.7 µM) in assay [1] and 33.6 µg/mL (≈ 43.8 µM) in assay [5]. The MIC50 in assay [2] is 1.56 µg/mL (≈ 2.03 µM); in assay [3], 3.13 µg/mL (≈ 4.08 µM); in assay [4], 12.5 µg/mL (≈ 16.3 µM); in assay [6] it was 1.56 µg/mL (≈ 2.03 µM); in assay [7], 0.78 µg/mL (≈ 1.02 µM).

In the case of `Cc1ccc(-c2cc(-c3cc(OCCCN)cc(OCCCN)c3)cc(-c3cc(OCCCN)cc(OCCCN)c3)c2)cc1` [Compound 110], the MIC50 in assay [2] came to 6.25 µg/mL (≈ 10.2 µM); in assay [3] it was 1.56 µg/mL (≈ 2.55 µM); in assay [4], 25 µg/mL (≈ 40.8 µM); in assay [6], 3.13 µg/mL (≈ 5.11 µM); in assay [7], 0.78 µg/mL (≈ 1.27 µM). The response in assay [5] was half-maximal at 129 µg/mL (≈ 211 µM) (EC50).

With `NCCCOc1cc(-c2cn(-c3cccc(OCCCN)c3)nn2)cc(-c2cn(-c3cccc(OCCCN)c3)nn2)c1` [Compound 107], the MIC50 in assay [2] is above 50 µg/mL; in assay [3], 25 µg/mL (≈ 42.8 µM); in assay [4], 25 µg/mL (≈ 42.8 µM); in assay [6] it was above 50 µg/mL; in assay [7], 50 µg/mL (≈ 85.7 µM). In assay [5], this compound showed an EC50 of 131 µg/mL (≈ 224 µM).

Take `CC(C)(C)c1ccc(-c2cc(-c3cc(OCCCN)cc(OCCCN)c3)cc(-c3cc(OCCCN)cc(OCCCN)c3)c2)cc1` [Compound 113]: the MIC50 in assay [2] worked out at 3.13 µg/mL (≈ 4.78 µM); in assay [3], 1.56 µg/mL (≈ 2.38 µM); in assay [4], 12.5 µg/mL (≈ 19.1 µM); in assay [6] it was 3.13 µg/mL (≈ 4.78 µM); in assay [7] it was 1.56 µg/mL (≈ 2.38 µM). In addition, the concentration for a half-maximal effect (EC50) in assay [5] was 99.5 µg/mL (≈ 152 µM).

Regarding `N=C(N)NCCCOc1cc(OCCCNC(=N)N)cc(-c2cccc(-c3cc(OCCCNC(=N)N)cc(OCCCNC(=N)N)c3)c2)c1` [Compound 109], the MIC50 is 6.25 µg/mL (≈ 9.05 µM) in assay [2]; 1.56 µg/mL (≈ 2.26 µM) in assay [3]; 12.5 µg/mL (≈ 18.1 µM) in assay [4]; 1.56 µg/mL (≈ 2.26 µM) in assay [6]; 0.4 µg/mL (≈ 0.579 µM) in assay [7]. Moreover, the response in assay [5] was half-maximal at 69 µg/mL (≈ 99.9 µM) (EC50).
